Assays:
[1] = ROS generation rate / quantum yield, DPBF bleaching in methanol; type: physicochemical; conditions: for φROS (ROS generation quantum yield): in methanol, DPBF trap, 450–470 nm illumination, riboflavin as reference
Description: The ROS generation rate was estimated using the spectrophotometric method, based on the absorption changes of 1,3-diphenylisobenzofuran (DPBF, Sigma Aldrich, Germany) in methanol solution. Irreversible oxidation of DPBF by singlet oxygen results in peroxide formation, and DPBF bleaching. When light of 400–450 nm was used as actinic, DPBF bleaching occurred without any photosensitizer (PS) in solution. Therefore, to study photosensitized ROS generation, we used a white MCWHLP1 LED (Thorlabs, USA) with filters to limit the radiation to the 450–470 nm range (5.5 mW/cm^2).
Spectrophotometric measurements were performed in a Qpod 2e (Quantum Northwest, USA) thermostated cuvette holder at 25 °C with magnetic stirring (500 rpm). Absorption spectra were recorded using a MayaPro spectrophotometer (Ocean Optics, USA) and a stabilized white light source with a SLS201L tungsten lamp (Thorlabs, USA). Illumination was uniform over the entire volume of the cuvette, to prevent artifacts associated with the diffusion of non-reacted components into the illuminated volume of the cuvette. In this case, the rate of irreversible bleaching of DPBF (412 nm) was the same under both continuous and pulsed irradiation with equal total irradiation time. Illumination was performed in a pulsed mode (Fig. S5A), with 1 s of illumination followed by 5 s of dark adaptation, during which the absorption spectrum of the PS-DPBF solution was recorded. Data processing was performed as previously described ([Gvozdev et al., 2020]).

[2] = test system: Vero cells; experiment: Cytotoxicity assay (Cell Counting Kit-8) in Vero cells; type: cell-based, African Green Monkey; conditions: 10 µM, 48 h
Experimental: (§1) To determine the overall cytotoxicity of the tested compounds, Vero cells were cultured for 24 h in 96-well plates to form a confluent monolayer, and then were treated with the tested compounds at concentrations of 2 and 10 µM. After 48 h of cultivation in the dark at 37 °C under 5% CO2, the cell culture medium was aspirated. The potential cytotoxicity of the tested perylene derivatives was determined based on cell viability using Cell Counting Kit-8 (Dojindo Molecular Technologies, Munich, Germany) according to the manufacturer's instructions. The cell viabilities of compound-treated Vero cells were compared with those of control DMSO-treated cells. We also used the above-described protocol to assess the cytotoxicity of the selected perylene antivirals, at concentrations ranging from 0 to 10 µM, in CaCo-2 and CRFK cells.

[3] = ROS generation measurement with DMA trap in DMSO; type: physicochemical; conditions: for ROS generation, DMA trap, under blue light: 465–480 nm, 30 mW/cm^2, 10 min
Experimental: ROS generation was also estimated using 9,10-dimethylanthracene (DMA), another specific fluorescent singlet oxygen trap, which forms nonfluorescent 9,10-dimethylanthracene endoperoxide after ROS-mediated DMA oxidation. Compounds (0, 0.1, 1, and 10 µM) in DMSO were mixed with DMA (0.5 µM), and these solutions were irradiated for 10 min at room temperature (RT) with light-emitting diodes (LED, 465–480 nm) having approximate power density of 30 mW/cm^2 (device description in Fig. S7). DMA fluorescence intensity was measured at ex/em wavelengths of 370/432 nm in the presence or absence of α-tocopherol (3 µg/mL) as an antioxidant. Singlet oxygen generation was accompanied by a decreased fluorescence signal of the DMA probe ([Zeng et al., 2020]).

[4] = Spectrofluorometric analysis of interaction with liposomes; type: physicochemical
[5] = test system: Vero cells; experiment: Light-induced cytotoxicity in Vero cells; type: cell-based, African Green Monkey; conditions: 0–10 µM, 465–480 nm 10 min, then 24 h in the dark
Experimental: To determine the light-induced cytotoxicity of the tested compounds, Vero cells were cultured for 24 h in 96-well plates to form a confluent monolayer, and then were treated with the tested compounds at concentrations of 0 to 10 µM. Then, the compound-treated cells were irradiated for 10 min at RT with LEDs (465–480 nm) having an approximate power density of 30 mW/cm^2 (device description in Fig. S7). As a negative control, compound-treated cells were incubated for 10 min in the dark at RT. Subsequently, both irradiated and non-irradiated cell monolayers were incubated in the dark at 37 °C for 24 h. Then, the cell culture medium was aspirated and the potential cytotoxicity of the tested perylene derivatives was determined based on cell viability using Cell Counting Kit-8 (Dojindo Molecular Technologies, Munich, Germany) according to the manufacturer's instructions.

[6] = test system: SARS-CoV-2; experiment: Photodynamic inactivation of SARS-CoV-2 virions; type: cell-based; conditions: for antiviral activity after blue light irradiation of virus-compound mixture: 465–480 nm, 30 mW/cm^2, 10 min, then 60 min at 37 °C in the dark, plaque assay
Experimental: Virus in DMEM (titer of 10^5 PFU/mL) was mixed with the compounds (0–10 µM) in a microtiter plate, in triplicate, and irradiated for 10 min at RT with LEDs (465–480 nm) having an approximate power density of 30 mW/cm^2 (device description in supplement). As a negative control, virus was incubated for 10 min in the dark at RT. Subsequently, both irradiated and non-irradiated virus samples were incubated in the dark at 37 °C for 60 min. All manipulation with the samples before and after this incubation, i.e., mixing the compound with the virus, pipetting into a microtiter plate, etc., were performed in daylight. Viral titers were determined by plaque assays (performed also in daylight) and expressed as PFU/mL, as previously described ([Stefanik et al., 2021]). To eliminate the influence of daylight on compound activity, the whole experiment, including all manipulation with samples, was performed in a dark room under red light. The virus sample was mixed with the indicated compounds at concentrations from 0 to 10 μM or 100 μM, incubated for 60 min at 37 °C and virus viability was evaluated using a plaque assay (Fig. 9A).

[7] = test system: CRFK cells; experiment: Cytotoxicity assay (Cell Counting Kit-8) in CRFK cells; type: cell-based, Felis catus; conditions: up to 10 µM
Experimental: as §1

[8] = test system: CaCo-2 cells; experiment: Cytotoxicity assay (Cell Counting Kit-8) in CaCo-2 cells; type: cell-based, human; conditions: up to 10 µM
Experimental: as §1

[9] = test system: feline infectious peritonitis virus (FIPV); type: cell-based, feline coronavirus (FCoV); conditions: 0–10 µM
[10] = test system: SARS-CoV-2 (Wuhan strain); experiment: Viral titer inhibition assay, SARS-CoV-2 in CaCo-2 cells; type: cell-based; conditions: 0–10 µM
[11] = test system: CaCo-2 cells; experiment: Cellular stress marker expression by RT-qPCR in CaCo-2 cells; type: cell-based, human
Experimental: RT-qPCR was performed to evaluate changes in the gene expression of cellular stress markers. […] Previous publications report the primer sequences and numbers of the Universal Probe Library (UPL; Roche Life Sciences, Germany) used for detection of ATF3, CDKN1A (p21), CYP1A1, DDIT3, HMOX1, HSPA1B (HSP70), and HSPA5 mRNAs ([Procházková et al., 2018]; [Šimečková et al., 2020]). […] TaqMan™ Gene Expression Assays (Thermo Fisher Scientific, Waltham, MA, USA) were used to determine the levels of FGF21 (Hs00173927_m1), GADD45A (Hs00169255_m1), GDF15 (Hs00171132_m1), and SRXN1 (Hs00607800_m1). The amplification was run in a 10-µL reaction mixture containing 1 µL of sample, using Kapa Probe Fast One-Step (Kapa Biosystems Pty, Cape Town, South Africa) on a LightCycler® 480 System (Roche Diagnostics, Czech Republic) using the previously published sequence ([Procházková et al., 2018]). Reference gene qPCR assays (Generi Biotech, Hradec Králové, Czech Republic) were used for the following housekeeping genes: human β2-Microglobulin (B2M; #3030), hydroxymethylbilane synthase (HMBS; #3032), and RNA polymerase II subunit A (POLR2A; #3035). We used an average of three reference gene Cp values to calculate the change in gene expression using the comparative threshold cycle method ([Schmittgen and Livak, 2008]).

SMILES | φROS (ROS generation quantum yield) [1] | cell viability (in words) [2] | further results
O=c1[nH]cc(C#Cc2ccc3c4cccc5cccc(c6cccc2c63)c54)c(=O)[nH]1 [Compound 3] | 12.7 ± 1.2% |  | 
O=C(O)c1ccc2c3cccc4cccc(c5cccc1c52)c43 [Compound 20] |  | moderately decreased cell viability | ROS generation, DMA trap, under blue light [3]: minimal photodynamic activities; solubility in water (in words) [4]: good solubility in water; penetration into liposomal membranes (in words) ([4]; 10 µM in PBS, EPC/Chol 70/30 mol% liposomes): no fluorescence enhancement; photodynamic activity (DPBF trap, in words) ([1]; methanol, 450–470 nm): minimal
CC(C)(C)C(=O)OCn1c(=O)c(C#Cc2ccc3c4cccc5cccc(c6cccc2c63)c54)cn(CC(=O)NC[C@@H](O)C(C)(C)CO)c1=O [Compound 7] | 17.3 ± 0.2% |  | 
Cn1cc(C#Cc2ccc3c4cccc5cccc(c6cccc2c63)c54)c(=O)n(C)c1=O [Compound 4] | 22.8 ± 0.4% | moderately decreased cell viability | 
CCCCNC(=O)Cn1cc(C#Cc2ccc3c4cccc5cccc(c6cccc2c63)c54)c(=O)n(COC(=O)C(C)(C)C)c1=O [Compound 8] | 17.6 ± 0.4% | moderately decreased cell viability | effect of blue light irradiation on cytotoxicity [5]: no effect; antiviral activity after blue light irradiation of virus-compound mixture [6]: significant increase of antiviral activity
CC(=O)Nc1ccc(C#Cc2ccc3c4cccc5cccc(c6cccc2c63)c54)cc1 [Compound 15] | 23.1 ± 0.4% |  | 
CC(C)(C)C(=O)OCn1c(=O)c(C#Cc2ccc3c4cccc5cccc(c6cccc2c63)c54)cn(CC(=O)NCCCCO)c1=O [Compound 6] | 18.2 ± 0.2% |  | 
O=C(NCCCCO)c1ccc(-c2ccc3c4cccc5cccc(c6cccc2c63)c54)s1 [Compound 17] | 59.0 ± 2.4% |  | effect of blue light irradiation on cytotoxicity [5]: dramatically increased; tolerability by CRFK cells [7]: well-tolerated; ROS generation, DMA trap, under blue light [3]: significant bleaching; ROS generation, DMA trap, in the dark or with α-tocopherol ([3]; 10 min, dark or α-tocopherol (3 µg/mL)): no/limited bleaching; tolerability by CaCo-2 cells [8]: well-tolerated; antiviral effect under red light only ([6]; 100 µM, dark room, red light, 60 min at 37 °C): no antiviral effect; antiviral activity after blue light irradiation of virus-compound mixture [6]: low-nanomolar; antiviral activity under red light only ([6]; up to 10 µM, dark room, red light, 60 min at 37 °C): completely disappeared; replication of FIPV in CRFK cells [9]: potently suppressed the replication; anti-SARS-CoV-2 activity in CaCo-2 cells [10]: sub-micromolar
O=c1[nH]c(=O)n([C@@H]2O[C@H](CO)[C@@H](O)[C@@H]2O)cc1C#Cc1ccc2c3cccc4cccc(c5cccc1c52)c43 [Compound 1, 5-(perylen-3-yl)ethynyl-arabino-uridine] | 22.8 ± 0.4% |  | 
CC(C)(C)C(=O)OCn1c(=O)c(C#Cc2ccc3c4cccc5cccc(c6cccc2c63)c54)cn(CC(=O)NCCCCCCO)c1=O [Compound 12] | 18.1 ± 0.4% | moderately decreased cell viability | 
C/C=C(/C)C(=O)O[C@H]1C(C)=C2[C@H]([C@@H]1OC(=O)CCCCCCC)[C@@](C)(OC(C)=O)C[C@H](OC(=O)CCC)[C@@]1(O)[C@H]2OC(=O)[C@@]1(C)O [thapsigargin, reference compound] |  |  | expression of HSPA5, DDIT3, HSPA1B (HSP70), CDKN1A (p21), GADD45A ([11]; CaCo-2 cells, 5, 24 and 48 h): increased
CC(C)(C)C(=O)OCn1c(=O)c(C#Cc2ccc3c4cccc5cccc(c6cccc2c63)c54)cn(CC(=O)NCCCO)c1=O [Compound 10] | 16.5 ± 0.2% |  | 
CCCCNC(=O)c1ccc(-c2ccc3c4cccc5cccc(c6cccc2c63)c54)s1 [Compound 19] | 59.1 ± 1.2% | moderately decreased cell viability | 
CC(C)(C)C(=O)OCn1c(=O)c(C#Cc2ccc3c4cccc5cccc(c6cccc2c63)c54)cn(CC(=O)NCCO)c1=O [Compound 9] | 17.3 ± 0.2% |  | 
CC(C)(C)C(=O)OCn1c(=O)c(C#Cc2ccc3c4cccc5cccc(c6cccc2c63)c54)cn(CC(=O)O)c1=O [Compound 5] | 20.5 ± 0.2% | moderately decreased cell viability | 
Clc1cc2c(cc1Cl)Oc1cc(Cl)c(Cl)cc1O2 [TCDD, reference compound] |  |  | increase of CYP1A1 mRNA level ([11]; CaCo-2 cells, 10 nM): up to 50 fold
CC(C)(C)C(=O)OCn1c(=O)c(C#Cc2ccc3c4cccc5cccc(c6cccc2c63)c54)cn(CC(=O)NCCCCCO)c1=O [Compound 11] | 17.2 ± 0.4% |  | 
O=C(c1ccc(-c2ccc3c4cccc5cccc(c6cccc2c63)c54)s1)N(CCO)CCO [Compound 18] | 60.0 ± 2.4% |  | 
